We go through four molecules from US11510925B2, “Methods and therapeutics to regulate hydrogen sulfide bioavailability” (Board of Supervisors of Louisiana State University and …, priority 2018, dated 2022).

What all share (assay type): cell-based, human
For experiment [1], the system named is ATR cells. The experiment can be described thus: Free cellular H2S measurement by HPLC after MBB derivatization, ATR cells. On the procedure: (§1) Cells: The human colon cancer cell line DLD1 cell line containing wild-type ATR (ATR cells) or the ATR-Seckel knock-in hypomorphic mutation (ATR-H cells) were a kind gift from Dr. Fred Bunz of the Department of Radiation Oncology and Molecular Radiation Sciences, The Johns Hopkins University School of Medicine. The cells were cultured in DMEM with 5% FBS, 1% penicillin/streptomycin.
(§2) H2S measurements: Bioavailable sulfide levels were measured as previously reported. Levels of free sulfide (H2S) in ATR and ATR-H cells were measured by high performance liquid chromatography (HPLC) after derivatization with excess MBB as stable products sulfide-dibimane (SDB). Briefly, ATR and ATR-H cells were homogenized in Tris.HCl buffer [100 mM Tris.HCl (pH 9.5) and 0.1 mM diethylenetriaminepentaacetic acid (DTPA)]. Cell lysates were derivatized with MBB and then measured by Shimadzu Prominence 20 A equipment with RF-10AXL (excitation wavelength: […] and emission wavelength: […]) and an Eclipse XDB-C18 column (4.6×50 mm, 5 μm). Typical retention times of SDB were 16.5 min. H2S levels were calculated according to the standard SDB.

For experiment [2], the system named is ATR-H cells. Briefly: Free cellular H2S measurement by HPLC after MBB derivatization, ATR-H cells. On the procedure:
as §1, §2

The subject of experiment [3] is DLD1 cell line containing the ATR-Seckel knock-in hypomorphic mutation (ATR-H cells). Briefly: Colony forming-efficiency assay, ATR-H cells. On the procedure: as §1
(§3) Colony forming-efficiency assay: Colony forming-efficiency (CEFA) experiments were performed. In brief, exponentially growing cells were plated for 12 h at 2000 cells/100 mm tissue culture dish in 10 ml appropriate media. The cells were pretreated for 2 h with either an H2S inhibitor (β-cyano-1-alanine, 1 mM) or donor (diallyl trisulfide, 20 uM), washed 3× with 1× phospate buffered saline, the media replaced, and the cells were immediately treated with for 15 min with 50, 100, and 200 μM t-butyl hydroperoxide (t-BOOH). Following treatment, the cells were washed 3× with phosphate-buffered saline, the media replaced and the cells cultured for 11 days. The resulting colonies were fixed and stained by water: methanol addition (1:1) containing crystal violet (1 g/l). “Colonies” consisted of cell clusters containing greater than 50 cells when counted by dissecting microscopy.

Experiment [4] relates to CHK1 serine-345 phosphorylation in ATR cells. The experiment can be described thus: Western blot of CHK1 serine 345 phosphorylation, ATR cells. On the procedure: as §1
(§4) Western blotting: To prepare whole cell lysates from ATR and ATR-H cells, the cells were grown in 6-well plates, the medium was removed, and 300 μl of SDS sample buffer (62.5 mM Tris-HCl (pH 6.8), 2% w/v SDS, 10% glycerol, 50 mM dithiothreitol, 0.1% w/v bromphenol blue) was added to each well. Following lysis in SDS sample buffer, lysates were harvested with cell scrapers and collected in Eppendorf tubes. The lysates were boiled, centrifuged, and frozen at −20° C. until gel electrophoresis was performed. The protein concentrations were measured by Bio-rad DC protein assay. Twenty […] of total protein supernatant extract was mixed with 2×SDS loading buffer according to protein concentration. Lysates separated by SDS-PAGE were transferred to polyvinylidene difluoride membranes, and membranes were blocked in 5% nonfat dry milk before the addition of primary antibodies. Densitometry was performed with ImageJ software version 1.45 s. All western blots were performed at least in triplicate.
(In general: In western blotting, separated proteins are transferred to a membrane and probed.)

In the next experiment the test system is ATR-pS435 in ATR cells. Briefly: Western blot of ATR serine 435 phosphorylation, ATR cells. On the procedure:
as §1, §4

Experiment [5] concerns DLD1 cell line containing wild-type ATR (ATR cells). Briefly: Colony forming-efficiency assay, ATR wild-type cells. The conditions noted are these: 11 days; for sensitivity of colony formation to t-BOOH after H2S inhibitor pretreatment: 2 h 1 mM β-cyano-l-alanine, then 15 min 50, 100 or 200 μM t-BOOH. On the procedure: as §1, §3
A further experiment deals with ATR-pS435 in ATR-H cells. The experiment can be described thus: Western blot of ATR serine 435 phosphorylation, ATR-H cells. The protocol:
as §1, §4

For experiment [6], the system named is ATR-H cells. Briefly: dsDNA breaks in metaphase chromosomal preparations, ATR-H cells. The protocol: as §1
(§5) Chromosomal preparation and analysis: One 100-mm tissue culture plate/treatment of logarithmically growing ATR and ATR-H cells at 50% confluence were treated with or without, 1 mM H2S inhibitor β-cyano-l-alanine for two hours, followed by a 15-minute treatment with 10 μM t-BOOH. Following this treatment, the cells were washed 3× with phosphate-buffered saline, the media replaced, and the cells cultured for 1 h. Colcemid (100 ng/ml) was then added for 4 h and the cells harvested by washing 2× in 1×PBS, followed by trypsinization and transference to a 15 ml tube. Two-ml of DMEM with 5% FBS was added/tube and the cells were pelleted 5 min at 500×g. The cells were re-suspended in 5 ml […] and incubated 15 min at 37° C. About 200 μl of fresh methanol: glacial acetic acid at 3:1 (Carnoy's fixative) was added, the cells gently vortexed, and pelleted for 5 min at 500×g. The supernatant was removed and 5 ml of Carnoy's fixative added with gentle vortexing. The cells were pelleted for 5 min at 500×g, the supernatant removed, and 5 ml of Carnoy's fixative was added with gentle vortexing. Chromosomal preparations were made by pelleting the preparations for 5 min at 500×g, removing the supernatant, dropping on slides, drying for 30 min at 90° C., Giemsa staining, washing, and cover-slipping. Each data point represents 5000 individual chromosomal observations preformed under oil immersion microscopy done in triplicate.

The subject of experiment [7] is CHK1 serine-345 phosphorylation in ATR-H cells. The experiment can be described thus: Western blot of CHK1 serine 345 phosphorylation, ATR-H cells. The settings on record: 2 h 1 mM β-cyano-l-alanine with or without 15 min 10 μM t-BOOH. On the procedure:
as §1, §4

In experiment [8] the test system is ATR cells. The experiment can be described thus: dsDNA breaks in metaphase chromosomal preparations, ATR cells. The conditions noted are these: 2 h 1 mM β-cyano-l-alanine followed by 10 μM t-BOOH. On the procedure: as §1
as §5, with “The cells were pelleted for 5 min at 500×g, the supernatant removed, and 5 ml of Carnoy's fixative was added with gentle vortexing. Chromosomal preparations were made by pelleting the preparations for 5 min at 500×g, removing the supernatant, dropping on slides, drying for 30 min at 90° C., Giemsa staining, washing, and cover-slipping. Each data point represents 5000 individual chromosomal observations preformed under oil immersion microscopy done in triplicate.” left out

Where [9] appears, read: ATR wild-type cells, 2 h 1 mM β-cyano-l-alanine.

Take `Nc1nc(N)c(N=O)c(OCC2CCCCC2)n1` [NU6027]: the “cellular free H2S concentration” value with ATR cells [1] (2 h 12 μM NU6027) is given as “significantly decreased”; in the experiment on ATR-H cells [2] (2 h 12 μM NU6027) it was “but not the ATR-H cells”.
Regarding `C=CCSSSCC=C` [diallyl trisulfide], the “colony formation, H2S donor pretreatment” value in experiment [3] (2 h 20 μM diallyl trisulfide, 11 days) is reported as “significantly decreased”; in [5] (2 h 20 μM diallyl trisulfide) it was “significantly decreased”. In addition, the “cellular free H2S concentration” value in the experiment on ATR cells [1] (2 h 20 μM diallyl trisulfide) is “suppressed”. In addition, the “CHK1 serine-345 phosphorylation after t-BOOH, H2S donor pretreatment” value in experiment [4] (ATR wild-type cells, H2S donor pretreatment, then t-BOOH) was “did not significantly alter”. In addition, the ATR-pS435 level entry is “inhibited this phosphorylation” with ATR-pS435 in ATR cells (ATR wild-type cells, 2 h 20 μM diallyl trisulfide) and “not affected by any treatment” in the experiment on ATR-pS435 in ATR-H cells (2 h 20 μM diallyl trisulfide).
`CC(C)(C)OO` [t-BOOH, t-butyl hydroperoxide]: the “colony formation suppression by t-BOOH” value is listed as “colony formation suppression was t-BOOH dose-dependent” in [3] (15 min 50, 100 or 200 μM t-BOOH, 11 days) and “colony formation suppression was t-BOOH dose-dependent” in experiment [5] (15 min 50, 100 or 200 μM t-BOOH). For the same molecule, in the experiment with ATR-pS435 in ATR cells (ATR wild type cells, 100 μM t-BOOH 15 min, then 45 min in media), the “induction of ATR-pS435 levels” value is listed as approximately 50%. The dsDNA break formation result with ATR-H cells [6] (15 min 10 μM t-BOOH alone) was “significantly increased dsDNA break formation”. Moreover, in the experiment on ATR-pS435 in ATR-H cells (100 μM t-BOOH 15 min, then 45 min in media), the ATR-pS435 level result is recorded as “not increased”.
In the case of `N#CC[C@H](N)C(=O)O` [β-cyano-l-alanine], the “colony formation, H2S inhibitor pretreatment with 200 μM t-BOOH versus 200 μM t-BOOH alone” value in [3] (200 μM t-BOOH) is reported as “not significantly different”. Also, in experiment [3] (2 h 1 mM β-cyano-l-alanine, no t-BOOH, 11 days), the “colony formation, H2S inhibitor by itself” value is on record as “suppressed ATR-H cell colony formation”. The “sensitivity of colony formation to t-BOOH after H2S inhibitor pretreatment” value was “significantly more sensitive to the same t-BOOH exposures” in experiment [3] (2 h 1 mM β-cyano-l-alanine, then 15 min 50, 100 or 200 μM t-BOOH, 11 days, compared to ATR wild-type cells); “slightly increased the sensitivity of the ATR cells” in experiment [5]; “only significantly potentiated t-BOOH toxicity at the two higher doses” in experiment [5] (listed as H2S inhibitor). In experiment [7], the “CHK1 serine-345 phosphorylation level changes” value is “failed to show significant CHK1 serine-345 phosphorylation level changes”. For the same molecule, the “cellular free H2S concentration” value in the experiment on ATR cells [1] (2 h 1 mM β-cyano-l-alanine) and with ATR-H cells [2] (2 h 1 mM β-cyano-l-alanine) was “significantly lowered” each time. Further, the “CHK1 serine-345 phosphorylation after t-BOOH, with versus without H2S inhibitor pretreatment” value in experiment [4] (ATR cells, 2 h 1 mM β-cyano-l-alanine, then 15 min 10 μM t-BOOH, harvest at 45 min) is on record as “significantly increased”. Besides, the ATR-pS435 level entry with ATR-pS435 in ATR cells (setting [9]) is reported as “increased ATR-pS435”; in the experiment with ATR-pS435 in ATR-H cells (2 h 1 mM β-cyano-l-alanine) it was “not affected by any treatment”. For the same molecule, in the experiment with ATR-pS435 in ATR cells (setting [9]), the “increase of ATR-pS435 compared to untreated cell phosphorylation levels” value was approximately 50%. For the same molecule, the dsDNA breaks entry with ATR cells [8], in the experiment with ATR-H cells [6] (1 mM β-cyano-l-alanine alone) and in the experiment on ATR-H cells [6] (2 h 1 mM β-cyano-l-alanine followed by 10 μM t-BOOH) was “significantly increased dsDNA breaks” throughout.
